# Measured values: publication PMC6271218, “Pharmacokinetics, Tissue Distribution and Excretion of Verticinone from F. hupehensis in Rats” (Molecules, 2014)
# Read-outs that look alike come from different tables or passages of the source.
# How the values were obtained:
# [1] = Plasma pharmacokinetics after i.v. administration; format: in vivo, SD rats; details: for AUC(0-inf) / AUC(0-t) / MRT last: SD, rat, plasma, iv; for AUC(0-inf) / AUC(0-t) / MRT last / Vz/F: i.v. 0.4 mg/kg; for MRT last: read-out: MRT0–t
# Method: (§1) Pharmacokinetic studies of verticinone after intravenous (i.v.) and intragastrical (i.g.) administration to rats were designed to determine pharmacokinetic parameters and absolute bioavailability. For i.g administration, verticinone was suspended in 0.5% carboxymethyl cellulose sodium (CMC-Na) to final concentrations of 0.2, 0.4 and 0.8 mg/mL. Verticinone was dissolved in 20% ethanol/80% water to final concentration of 0.08 mg/mL for i.v. administration. For the i.v. group, five male and five female rats received a single dose of 0.4 mg/kg. Blood samples (0.25 mL) were obtained at 0, 4, 15, 30, 45, 60, 120, 240, 360, 480, 600 and 720 min after injection. For the single- i.g. group, fifteen male and fifteen female rats were divided into three groups, and each group received a single oral dose of 1, 2 and 4 mg/kg of verticinone, respectively. In addition, another five male and five female rats received multiple oral doses of 4 mg/kg/day, given as 2 mg/kg doses twice a day (one dose in the morning and the second dose 12 h later) for 7 days, then a single oral dose of 2 mg/kg on the eighth day. Blood samples (0.25 mL) were obtained at 0, 5, 15, 30, 45, 60, 90, 120, 240, 360, 480 and 720 min for male rats and at 0, 5, 10, 20, 30, 45, 60, 120, 240, 360, 480 and 720 min for female rats after oral administration (the eighth day for multiple-dose group). Blood samples were then centrifuged at 4000 rpm for 10 min, and the plasma was collected. All plasma samples were frozen and stored at −20 °C until analysis. Verticinone was isolated from plasma by liquid-liquid extraction according to our previously reported procedure.
# (§2) The quantification of verticinone was performed by a LC-MS method based on the previously reported method with slight modifications. The liquid chromatography system consisted of a model 2010 chromatograph (Shimadzu, Kyoto, Japan) equipped with a Shim-Pack VP-ODS C18 column (150 mm × 2.0 mm, 5 μm). A Shimadzu 2010 mass spectrometer (Q-array-Octapole-Quadrupole mass analyzer) equipped with an electrospray ionization interface was used for MS detection. The mobile phase consisted of (A) distilled water and (B) methanol, and the flow rate was 0.2 mL/min. Chromatography separation was achieved using a gradient elution program, as follows: 0.03→6.0 min, B% 15→85; 6.0→7.0 min, B% 85→85; 7.0→8.0 min, B% 85→15; 8.0–12.0 min, B% 15→15. The column and autosampler tray temperature were kept constant at 35 °C and 20 °C, respectively. For the determination of verticinone, the positive mode was selected, along with the conditions as follows.
# (§3) CDL voltage […], probe voltage 4.5 kV, CDL temperature 250 °C, block temperature 200 °C, gas flow 1.5 L/min. Hupehenine was used as the internal standard (IS). Both verticinone and IS were detected using selected ion monitoring (SIM) at m/z 430.25 for verticinone and m/z 416.30 for hupehenine (IS), with a dwell time of 200 ms. Blank plasma, tissue homogenate, urine, feces homogenate and bile were used to prepare the corresponding calibration curves to avoid different matrix effects.
# (§4) The pharmacokinetic parameters were calculated by the DAS 2.0 software (Chinese Pharmacological Association, Beijing, China) using a standard non-compartmental method. The Cmax and Tmax were determined from the observed data. The elimination rate constant (ke) was calculated by log-linear regression of verticinone concentrations during the terminal elimination phase and the half-life (t1/2) was calculated as 0.693/ke. The AUC0–t was calculated by the linear trapezoidal method. The AUC0–∞ was calculated as the sum of AUC0–t and the extrapolated part determined by Clast/ke. The total clearance (CL) was calculated as dose/AUC0–∞. The absolute bioavailability (F) was calculated by the following equation: F = [(AUCi.g./AUCi.v.) × (Dosei.v./Dosei.g.)] × 100%. The results were expressed as mean ± SD. Statistical analyses were performed using an unpaired Student’s t-test.
# [2] = Multiple-dose (successive i.g.) plasma pharmacokinetics; format: in vivo, SD rats; details: for Cmax / AUC(0-inf) / AUC(0-t) / Tmax / MRT last / Vd/F / half-life: SD, rat, plasma, po; for MRT last: read-out: MRT0–t; for Vd/F: read-out: Vz/F; for half-life: read-out: t1/2z (converted)
# Method: as §1, §2, §3, §4
# [3] = Plasma protein binding in vitro by ultrafiltration, rat plasma; format: in vitro ADME, rats
# Method: The ability of verticinone to bind to plasma protein was determined by the ultrafiltration method. A Centrifree Micropartition device (Millipore, Beverly, MA, USA) was used to separate unbound and bound verticinone. Verticinone of different concentrations were added into blank rat and human plasma to give final concentrations at 5, 30 and 100 ng/mL. The spiked plasma was incubated for 30 min at 37 °C and an aliquot (100 μL) was analyzed by previously described methods to determine the total concentration of verticinone. The ultrafiltrate was obtained by centrifuging at 14,000 rpm for 10 min. The concentration of unbound verticinone in filtrate was similarly determined by the previously described methods. The percentage of free fraction (p) of verticinone was calculated as follow: p = (concentration of verticinone in ultrafiltrate/concentration of verticinone in original spiked plasma sample) × 100%.
# [4] = Metabolic rate in rat liver microsomes; format: in vitro ADME
# [5] = set-up: method as in PMID 19417735; details: mice; cited from earlier work
# [6] = successive i.g. 2 mg/kg, female rats
# [7] = successive i.g. 2 mg/kg, male rats
structure (smiles),measurement,setting,value
"C[C@H]1CC[C@@H]2N(C1)C[C@H]1[C@@H]3C[C@H]4[C@@H](CC(=O)[C@H]5C[C@@H](O)CC[C@@]54C)[C@@H]3CC[C@@H]1[C@]2(C)O [verticinone, Verticinone]",AUC(0-inf),[1]; female rats,98.9 ± 35.8 ng·h/mL
same,AUC(0-t),[1]; female rats,65.6 ± 7.03 ng·h/mL
same,MRT last,[1]; female rats,2.04 ± 0.34 h
same,AUC(0-inf),[1]; male rats,168 ± 23 ng·h/mL
same,AUC(0-t),[1]; male rats,160 ± 20.2 ng·h/mL
same,MRT last,[1]; male rats,2.37 ± 0.14 h
same,Vz/F,[1]; female rats,82.5 ± 70.3 L/kg
same,Vz/F,[1]; male rats,10.9 ± 1.56 L/kg
same,"Exposure, fold higher in male rats than in female rats",[1]; i.v. dose 0.4 mg/kg,2.4 fold
same,Cmax,"[2]; successive i.g. 2 mg/kg (twice a day for 7 days, then single dose on eighth day), female rats",19.9 ± 14 ng/mL
same,AUC(0-inf),[2]; [6],43.4 ± 12 ng·h/mL
same,AUC(0-t),[2]; [6],36.1 ± 15.2 ng·h/mL
same,Tmax,[2]; [6],22.8 ± 13.2 min
same,MRT last,[2]; [6],2.24 ± 0.28 h
same,Vd/F,[2]; [6],485 ± 499 L/kg
same,half-life,[2]; [6],356 ± 290 min
same,AUC(0-inf),[2]; [7],455 ± 125 ng·h/mL
same,AUC(0-t),[2]; [7],439 ± 126 ng·h/mL
same,Cmax,[2]; [7],119 ± 26.8 ng/mL
same,Tmax,[2]; [7],48 ± 12.6 min
same,MRT last,[2]; [7],2.98 ± 0.3 h
same,Vd/F,[2]; [7],13.8 ± 4.07 L/kg
same,half-life,[2]; [7],125 ± 30.6 min
same,"AUC, fold higher after successive i.g. than single i.g.","[2]; female rats, 2 mg/kg",approximately 2 fold
same,"CL, fold lower after successive i.g. than single i.g.","[2]; female rats, 2 mg/kg",2 fold
same,"Cmax, fold higher after successive i.g. than single i.g.","[2]; female rats, 2 mg/kg",approximately 2 fold
same,"fraction unbound at 30 min, 5 ng/mL","[3]; rat plasma, 5 ng/mL, ultrafiltration, n = 4, read-out: Protein binding rates (%) (converted)",0.087
same,"fraction unbound at 30 min, 30 ng/mL","[3]; rat plasma, 30 ng/mL, ultrafiltration, n = 4, read-out: Protein binding rates (%)",0.09
same,"fraction unbound at 30 min, 100 ng/mL","[3]; rat plasma, 100 ng/mL, ultrafiltration, n = 4, read-out: Protein binding rates (%) (converted)",0.102
same,fraction unbound at 30 min,"[3]; rat, plasma, rats, concentration range 5~100 ng/mL",0.087 to 0.102
same,metabolic rate in rat liver microsomes,[4]; female rats,3.76 × 10^−3 nmol/min/mg protein
same,"metabolic rate in rat liver microsomes, females faster than males",[4]; females vs males,about 1.7 times
same,metabolic rate in rat liver microsomes,[4]; male rats,2.18 × 10^−3 nmol/min/mg protein
same,addictive effect,[5],no addictive effect
